Paper PMC10148601 (Analytica Chimica Acta, 2023)
Entries after “also recorded” stand apart in the source; their conditions may differ. Bridge positions count the residues as written; N and C are the ends. Ends that are not written are not given here.

Tests used:
SARS-CoV-2 NP [1] = target: T1, SARS-CoV-2 NP (Severe acute respiratory syndrome coronavirus 2, UniProt P0DTC9)
SARS-CoV-2 NP [2] = target: T1, SARS-CoV-2 NP; remark: listed apart in the source
[3] = tested on: SARS-CoV-2 NP versus SARS-CoV NP, MERS-CoV NP, HCoV-OC43 NP, SARS-CoV-2 S1, S-RBD, MERS-CoV S1, VEGF165, HSA, AFP, CEA, BSA; format: binding; details: n = 3
SARS-CoV-2 NP [4] = target: T1, SARS-CoV-2 NP; remark: listed apart in the source

Row | Sequence | Frequency among sequenced phage clones (SARS-CoV-2 NP [1]) | binding to SARS-CoV-2 NP (positive clone) (SARS-CoV-2 NP [2]) | relative affinity for NP (SARS-CoV-2 NP [2]) | specificity of binding [3] | binding specificity and affinity in words (SARS-CoV-2 NP [4])
1 | ACGTKPTKFC (disulfide 2-10 (inferred)) [N1] | 6/26 | have the ability to bind to SARS-CoV-2 NP with a significant difference compared to the control (P < 0.001) | may have higher affinity for NP than the other clones | specifically recognizes SARS-CoV-2 NP; also recorded: binds specifically to SARS-CoV-2 NP; also recorded: has the best specificity | –
2 | ACGTKPTKFCGGGGGS (disulfide 2-10 (inferred)) [peptide probe N1] | – | – | – | – | binds to SARS-CoV-2 NP with good specificity and high affinity
3 | ACLKTYWYNC (disulfide 2-10 (inferred)) [N5] | 2/26 | have the ability to bind to SARS-CoV-2 NP with a significant difference compared to the control (P < 0.001) | may have higher affinity for NP than the other clones | can bind to either MERS-CoV NP, SARS-CoV NP, or HCoV-OC43 NP; also recorded: limited selectivity | –
4 | ACTPRSANYC (disulfide 2-10 (inferred)) [N4] | 3/26 | – | – | can bind to either MERS-CoV NP, SARS-CoV NP, or HCoV-OC43 NP; also recorded: limited selectivity | –
